# Reference: US20240263128A1, “METHOD OF PRODUCING BIOLOGICAL MATERIAL” (NIPPON TELEGRAPH AND TELEPHONE CORPORATION, priority 2021, published 2024)
# Tests used:
# Cyanidiosyzon merolae [1] = assay: Fat and oil accumulation in unicellular red algae (BODIPY staining, fluorescence microscopy); format: cell-based; conditions: 2 mmol/L dimethyl 2-oxoglutarate, MA2 culture medium, suspension culture under light, 24 hours after addition, compared with culture without promoter; FIG. 2 vs FIG. 4
# Protocol: Unicellular red algae were cultured in suspension under a light condition and a promoter was added thereto. An MA2 culture medium was used as a culture medium. Cyanidiosyzon merolae were used as unicellular red algae. Dimethyl 2-oxoglutarate was used as a promoter. The promoter was added so that the final concentration of dimethyl 2-oxoglutarate would be 2 mmol/L. After the addition of the promoter, the cultivation was continued for 24 hours more. Thereafter, a bright field image was obtained for the cultured unicellular red algae using a microscope. In addition, the fat and oil of the unicellular red algae were stained with commercially available BODIPY (registered trademark) from the Cosmo Bio, Inc. Then, a fluorescence observation image of the unicellular red algae with stained fat and oil was acquired by using a fluorescence microscope. In addition, cultivation was similarly conducted as described above except that no promoter was added. Then, acquisition of a bright field image, staining of fat and oil, and acquisition of a fluorescence observation image were carried out also for the cultured unicellular red algae.
# Cyanidiosyzon merolae [2] = assay: Amount of starch in unicellular red algae after cultivation; format: cell-based; conditions: 2 mmol/L dimethyl 2-oxoglutarate, MA2 culture medium, suspension culture under light, 24 hours after addition, compared with control without promoter; average of three independent tests, FIG. 5
# Protocol: Unicellular red algae were cultured in suspension under a light condition and a promoter was added thereto. An MA2 culture medium was used as a culture medium. Cyanidiosyzon merolae were used as unicellular red algae. Dimethyl 2-oxoglutarate was used as a promoter. The promoter was added so that the final concentration of dimethyl 2-oxoglutarate would be 2 mmol/L. After the addition of the promoter, the cultivation was continued for 24 hours more. Thereafter, a bright field image was obtained for the cultured unicellular red algae using a microscope. In addition, the fat and oil of the unicellular red algae were stained with commercially available BODIPY (registered trademark) from the Cosmo Bio, Inc. Then, a fluorescence observation image of the unicellular red algae with stained fat and oil was acquired by using a fluorescence microscope. The same cultivation as in test 1 was performed, and the amount of starch contained in the unicellular red algae after the cultivation was determined. FIG. 5 is a graph showing an example of the influence of addition of a promoter on the amount of accumulation of starch. […] In FIG. 5, “control” represents the results obtained for the unicellular red algae cultured without adding a promoter to the culture medium. […]
smiles,measurement,setting,value
"COC(=O)CCC(=O)C(=O)OC [promoter, dimethyl 2-oxoglutarate]",accumulation of fat and oil (fluorescence caused by BODIPY staining),Cyanidiosyzon merolae [1],greatly promoted
same,amount of accumulation of starch,Cyanidiosyzon merolae [2],greatly promoted
